Test results taken from the supplement of paper PMC8149375.

Key:
Settings in all cases: treatment: drug alone; 5 days
TK-10 [1] = assay: AUC of dose-response viability curve, drug alone (arbitrary (AUC of normalised viability)); higher = less growth inhibition
Procedure: (§1)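 Primary HTS: 8 RCC cell lines treated with 8 doses (up to 10 uM) of each library drug alone for 5 days; viability read by CellTiter-Glo and normalised to DMSO. GI50 was fitted with XLfit (4-parameter), AUC is the area under the dose-response curve, and minimum viability is the lowest fraction of DMSO viability across doses.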

ACHN [2] = assay: as above
Procedure: as §1

SN12C [3] = assay: as above
Procedure: as §1

A498 [4] = assay: as above
Procedure: as §1

786-O [5] = assay: as above
Procedure: as §1

769-P [6] = assay: as above
Procedure: as §1

UO-31 [7] = assay: as above
Procedure: as §1

CAKI-1 [8] = assay: as above
Procedure: as §1

TK-10 [9] = assay: minimum viability across doses, drug alone, relative to DMSO (fraction); higher = less growth inhibition
Procedure: as §1

ACHN [10] = assay: as above
Procedure: as §1

SN12C [11] = assay: as above
Procedure: as §1

A498 [12] = assay: as above
Procedure: as §1

786-O [13] = assay: as above
Procedure: as §1

769-P [14] = assay: as above
Procedure: as §1

UO-31 [15] = assay: as above
Procedure: as §1

CAKI-1 [16] = assay: as above
Procedure: as §1

TK-10 [17] = assay: GI50, drug alone; higher = less potent
Procedure: as §1

ACHN [18] = assay: GI50, drug alone; higher = less potent
Procedure: as §1

SN12C [19] = assay: GI50, drug alone; higher = less potent
Procedure: as §1

A498 [20] = assay: GI50, drug alone; higher = less potent
Procedure: as §1

786-O [21] = assay: GI50, drug alone; higher = less potent
Procedure: as §1

769-P [22] = assay: GI50, drug alone; higher = less potent
Procedure: as §1

UO-31 [23] = assay: GI50, drug alone; higher = less potent
Procedure: as §1

CAKI-1 [24] = assay: GI50, drug alone; higher = less potent
Procedure: as §1

| Compound | AUC of dose-response viability curve (TK-10 [1]) | AUC of dose-response viability curve (ACHN [2]) | AUC of dose-response viability curve (SN12C [3]) | AUC of dose-response viability curve (A498 [4]) | AUC of dose-response viability curve (786-O [5]) | AUC of dose-response viability curve (769-P [6]) | AUC of dose-response viability curve (UO-31 [7]) | AUC of dose-response viability curve (CAKI-1 [8]) | minimum viability across doses (TK-10 [9]) | minimum viability across doses (ACHN [10]) | minimum viability across doses (SN12C [11]) | minimum viability across doses (A498 [12]) | minimum viability across doses (786-O [13]) | minimum viability across doses (769-P [14]) | minimum viability across doses (UO-31 [15]) | minimum viability across doses (CAKI-1 [16]) | GI50, drug alone (TK-10 [17]) [nM] | GI50, drug alone (ACHN [18]) [nM] | GI50, drug alone (SN12C [19]) [nM] | GI50, drug alone (A498 [20]) [nM] | GI50, drug alone (786-O [21]) [nM] | GI50, drug alone (769-P [22]) [nM] | GI50, drug alone (UO-31 [23]) [nM] | GI50, drug alone (CAKI-1 [24]) [nM] |
| --- | --- | --- | --- | --- | --- | --- | --- | --- | --- | --- | --- | --- | --- | --- | --- | --- | --- | --- | --- | --- | --- | --- | --- | --- |
| COC[C@H]1OC(=O)c2coc3c2[C@@]1(C)C1=C(C3=O)[C@@H]2CCC(=O)[C@@]2(C)C[C@@H]1OC(C)=O [Wortmannin] | 3.1 | 2.78 | 2.78 | 3.03 | 1.99 | 3.15 | 2.58 | 2.45 | 0.725 | 0.426 | 0.387 | 0.421 | 0.00957 | 0.55 | 0.643 | 0.301 | > 10000 | 98.1 | 83.5 | 83.3 | 49.3 | > 10000 | > 10000 | 2420 |
| Cc1ccc(S(=O)(=O)Nc2nc3ccccc3nc2Nc2ccc3nsnc3c2)cc1 [XL147] | 3.52 | 3.19 | 3.52 | 3.61 | 3.2 | 3.3 | 4.38 | 3.82 | 0.902 | 0.811 | 0.92 | 0.933 | 0.768 | 0.884 | 1.13 | 1.03 | > 10000 | > 10000 | > 10000 | > 10000 | > 10000 | > 10000 | > 10000 | > 10000 |
| COc1cc2nccc(Oc3ccc(NC(=O)C4(C(=O)Nc5ccc(F)cc5)CC4)cc3)c2cc1OC [XL-184 free base (Cabozantinib)] | 2.91 | 2.25 | 2.92 | 3.95 | 3.06 | 3.39 | 3.88 | 3.2 | 0.102 | 0.221 | 0.279 | 0.805 | 0.222 | 0.557 | 0.675 | 0.116 | 4140 | 1340 | 5270 | > 10000 | 5690 | > 10000 | > 10000 | 4710 |
| COCC[n+]1c2c(n(Cc3cnccn3)c1C)C(=O)c1ccccc1C2=O [YM155] | 1.14 | 0.648 | 0.567 | 0.68 | 0.165 | 0.736 | 0.852 | 0.655 | 0.0341 | 0.00196 | 0.00269 | 0.0106 | 0.00377 | 0.00858 | 0.00519 | 0.00636 | 27.7 | 13.3 | 11.3 | 12.4 | > 10000 | 14.5 | 25.6 | 12.5 |
| FC(F)c1nc2ccccc2n1-c1nc(N2CCOCC2)nc(N2CCOCC2)n1 [ZSTK474] | 2.17 | 2.36 | 2.48 | 2.84 | 1.95 | 2.38 | 2.73 | 2.12 | 0.158 | 0.0879 | 0.172 | 0.0458 | 0.0739 | 0.127 | 0.0171 | 0.109 | 547 | 699 | 1230 | 2170 | 299 | 1090 | 1450 | 431 |
| O=C(O)c1ccc2c(c1)nc(Nc1cccc(Cl)c1)c1ccncc12 [cx-4945 (Silmitasertib)] | 3.01 | 3.2 | 3.06 | 4.21 | 2.33 | 3.12 | 4.43 | 3.07 | 0.634 | 0.238 | 0.681 | 0.956 | 0.259 | 0.679 | 0.541 | 0.0814 | > 10000 | 8870 | > 10000 | > 10000 | 5230 | > 10000 | > 10000 | 3970 |
